Data taken from patent US20110039714A1, “Probes, Systems, and Methods for Drug Discovery” (priority 2001, published 2011).

Target: T1, thrombin (Bos taurus, UniProt P00735)
T1 construct: purchased Sigma T-3399
Test: biological assay for thrombin inhibitory activity (fluorogenic substrate)
Type: biochemical
Conditions: for inhibition at 50 µM: test probe concentration 50 μM; for inhibition at 100 µM: test probe concentration 100 μM
Experimental: The biological assay (28320) for thrombin inhibitory activity is detailed below. To Nunc 96-well black fluorescence plate wells is added 70 microliters of assay buffer, followed by 10 microliters of 1 millimolar substrate solution. Test probe (10 microliters in 30% DMSO) is then added to wells according to the desired concentrations for the assay. The mixture is incubated at 37° C. for 5 minutes, followed by addition of 10 microliters of thrombin (100 micrograms/mL in assay buffer), to make a final assay volume of 100 microliters. The plate is mixed gently and incubated 15 minutes at 37° C. Stop buffer (100 microliters) is added, and the plate is read by detecting emission at 460 nm. Percent inhibition of test compound is calculated by comparison with control wells. “Assay buffer” is composed of 100 mM KH2PO4, 100 mM Na2HPO4, 1 mM EDTA, 0.01% BRIJ-35, and 1 mM dithiothreitol (added fresh on the day assay is preformed). “Stop buffer” is composed of 100 mM Na—O(O)CCH2Cl and 30 mM sodium acetate which is brought to pH 2.5 with glacial acetic acid. Thrombin was purchased from Sigma (cat #T-3399). Thrombin substrate III fluorogenic was purchased from ICN (cat #195915). Sodium acetate, dithiothreitol, and Brij-35 were purchased from Sigma. Sodium monochloroacetate was purchased from Lancaster 223-498-3. Glacial acetic acid was purchased from Alfa Aesar (cat #33252). Thrombin was stored at −20° C. Thrombin substrate fluorogenic was stored at −20° C. (5 mM in DMSO).
Results are expressed as percentage inhibition at a given test probe concentration in the Table below;

inhibition at 50 µM [%]	inhibition at 100 µM [%]	Compound
10 to 39	40 to 74	COc1ccc(CNC(=O)c2cc(Cl)ccc2NC(=O)c2n[nH]c3ccccc23)cc1OC [Example B1]
10 to 39	40 to 74	CCCCN(CCCC)CCCNC(=O)c1cc(Cl)ccc1NC(=O)c1n[nH]c2ccccc12 [Example B2]
10 to 39	40 to 74	C[C@@H](NC(=O)C(NC(=O)c1n[nH]c2ccccc12)C1CCNCC1)c1ccccc1 (stereo partly drawn) [Example B3]
